Data reported in article PMC6270258, “Diosgenone Synthesis, Anti-Malarial Activity and QSAR of Analogues of This Natural Product” (Molecules, 2013).
Where two headings read alike, the source gives them in different places.

Key:
[1] = system: Plasmodium berghei (ANKA strain); assay: Peters' 4-day suppressive test in P. berghei-infected mice; type: in vivo, Plasmodium berghei in Balb/C mice; settings: 100 mg/kg oral
Description: Antimalarial activity was expressed as the percentage of parasite multiplication inhibition.
Antimalarial activity was assessed in vivo in the P. berghei rodent malaria model according to Peters’ 4-day suppressive test in P. berghei-infected (ANKA strain), 5–6 week-old Balb/C mice (males and females) weighing 23 ± 5 g; parasitemia kinetics were evaluated following treatment [2]. […] The donor mice were anesthetized with a 5 mg/kg xylazine and 50 mg/kg ketamine cocktail; blood was then collected via intracardiac route and 100 uL of 5 × 10^6 P. berghei ANKA-parasitised parasitized erythrocytes per experimental mouse were inoculated. Mouse infection was checked one day later by thin smear blood test and Giemsa staining.

[2] = system: Plasmodium falciparum FCB-2 (chloroquine-resistant) strain; design: method as in doi:10.1016/S0040-4020(98)00632-2, PMID 11807967; settings: reported earlier; cited from earlier work
[3] = Cytotoxicity, MTT colorimetric test; type: cell-based, human; settings: human
Description: (§1) Steroidal derivatives’ cytotoxicity regarding the HepG2-A16 cell line was evaluated by colorimetric test using 3-(4,5-dimethylthiazolyl-2)-2,5-diphenyltetrazolium bromide (MTT), as described by Mosmann [28]. […] An aliquot of each derivative dilution (100 μL, 1,000, 100, 10 and 1 μg/mL) was then added to the wells in triplicate. […] The DMSO diluent agent was evaluated in complete medium and negative controls (untreated cells) were included. Absorbance was measured at 550 nm and statistical Prism software version 5.0 (GraphPad Software Inc., La Jolla, CA, USA) was used for calculating toxic concentration (CC50). Amphotericin B was used as positive control in this assay.

[4] = system: Plasmodium falciparum FCB-2 (chloroquine-resistant) strain; assay: In vitro antiplasmodial activity, [3H]hypoxanthine incorporation, FCB-2 strain; type: cell-based; settings: for IC50: 48 h, P. falciparum FCB-2 chloroquine-resistant strain, read-out: IC50 μM ± SD FCB-2; for RI (resistance index): IC50 FCB-2 (resistant strain)/IC50 NF-54 (sensitive strain)
Description: (§2) A 10 mg/mL stock solution was prepared. […] A 50 μL sample was extracted from this solution and adjusted to 1,000 μL with RPMI-1640 without hypoxanthine until a final 500 μg/mL concentration was reached. The P. falciparum FcB-2 (Colombia) and NF54 (The Netherlands) strains were used for assessing anti-malarial activity.
(§3) Trager and Jensen’s method was used for culturing strains [24, 25]. The methods described by Desjardins et al. [26] were used for evaluating the structural analogs’ in vitro antiplasmodial activity, with some modifications. […] 1.0 µCi/mL of [3H] hypoxanthine (MP Biomedicals, Santa Ana, CA, USA) was added to each well and the plates were then incubated for 48 h at 37 °C in 5% CO2, 5% O2 in a balanced N2 atmosphere. Parasite DNA was harvested and radioactivity was determined by automatic TDCR liquid scintillation counter plate (Chameleon, Hidex Oy, Finland). Experiments were repeated twice with two or three replicates each. A nonlinear regression sigmoidal dose-response (variable slope) model was used to estimate concentration inhibiting 50% growth (IC50) values for each derivative.

[5] = system: Plasmodium falciparum NF-54 strain; assay: In vitro antiplasmodial activity, [3H]hypoxanthine incorporation, NF-54 strain; type: cell-based; settings: P. falciparum NF-54 chloroquine-sensitive strain, 48 h, read-out: IC50 μM ± SD NF-54
Description: as §2, §3

[6] = system: HepG2-A16 human hepatoma cells; assay: Cytotoxicity, MTT colorimetric test; type: cell-based; settings: CC50 HepG2/IC50 parasite FCB-2
Description: as §1

| SMILES | in vivo effect on parasites (in words) [1] | parasitaemia (parasitized erythrocytes) ([1]; fifth day post treatment, vehicle controls 36.0%) [%] | antiplasmodial activity against FcB-2 chloroquine-resistant strains (in words) [2] | CC50 at 48 h [3] [µM] | IC50 ([4]; Plasmodium falciparum) [µM] | IC50 [5] [µM] | SI (selectivity index) [6] | RI (resistance index) [4] | IC50 [4] [µM] | reduction in parasitemia ([1]; 4 daily doses) [%] | melting point [°C] | antiplasmodial activity (in words) ([4]; P. falciparum FCB-2 and NF-54 strains, compared to diosgenone or parent) |
| --- | --- | --- | --- | --- | --- | --- | --- | --- | --- | --- | --- | --- |
| C[C@@H]1CC[C@@]2(OC1)O[C@H]1C[C@H]3[C@@H]4CCC5=CC(=O)CC[C@]5(C)[C@H]4CC[C@]3(C)[C@H]1[C@@H]2C [Compound 2, (25R)-4-Spirosten-3-one] | no decrease in the amount of parasites | 50.0 | have antiplasmodial activity | 265 | 27.9 ± 5.5 | 35.4 ± 2.2 |  |  |  |  |  |  |
| CC(=O)O[C@H]1CC2C3CCC4=CC(=O)CC[C@]4(C)C3CC[C@]2(C)[C@H]1[C@H](C)C(=O)CC[C@@H](C)CO (stereo partly drawn) [Compound 3] |  |  | have antiplasmodial activity | 60 | 21.4 | 33 ± 0.8 | 2.8 | 0.6 | 21.35 ± 0.2 |  |  |  |
| C[C@@H](CO)CCC(=O)[C@@H](C)[C@H]1[C@@H](O)CC2C3CCC4=CC(=O)CC[C@]4(C)C3CC[C@@]21C (stereo partly drawn) [Compound 4] |  |  | have antiplasmodial activity | 2150 | 223 ± 12.3 | 248 ± 5.3 | 9.6 | 0.9 |  |  |  |  |
| C[C@@H]1CC[C@@]2(OC1)O[C@H]1C[C@H]3[C@@H]4CC(=O)C5=CC(=O)CC[C@]5(C)[C@H]4CC[C@]3(C)[C@H]1[C@@H]2C [Compound 18, (25R)-4-Spirosten-3,6-dione] |  |  |  | 192 | 11.3 ± 1.6 | 9.8 ± 1 | 16.9 | 1.2 |  | 35.0 | 200 to 202 | more active than diosgenone |
